Assay results from ChEMBL document CHEMBL1149890, “Brianodins A-D, briarane-type diterpenoids from soft coral Pachyclavularia sp” (J Nat Prod, 2008).
In brackets after ≈: the same amount, converted by molar mass.

Tests used:
KB = experiment: Cytotoxicity against human KB cells; type: functional, cell-based
L1210 = experiment: Cytotoxicity against mouse L1210 cells; type: functional, cell-based

Compound: CC(=O)O[C@@H]1C/C(C)=C\[C@@H]2OC(=O)[C@@](C)(O)[C@@]2(O)[C@@H](OC(C)=O)[C@H]2[C@](C)(O)[C@H](O)C=C[C@]2(C)[C@@H]1O [BRIANODIN D]
- IC50 (KB): > 10 µg/mL

Compound: CC(=O)O[C@@H]1[C@H](O)[C@@H](OC(C)=O)/C(C)=C\[C@@H]2OC(=O)[C@@](C)(O)[C@@]2(O)[C@@H](OC(C)=O)[C@H]2[C@](C)(O)[C@H](OC(C)=O)C=C[C@]12C [BRIANODIN B]
- IC50 (KB): > 10 µg/mL

Compound: CC(=O)O[C@@H]1C/C(C)=C\[C@@H]2OC(=O)[C@]3(C)O[C@]23[C@@H](OC(C)=O)[C@H]2[C@](C)(O)[C@H](OC(C)=O)C=C[C@]2(C)[C@@H]1O [BRIANODIN A]
- IC50 (L1210): 1.8 µg/mL (≈ 3.44 µM)
- IC50 (KB): 4.3 µg/mL (≈ 8.23 µM)

Compound: CC(=O)O[C@@H]1[C@H](O)[C@@H](OC(C)=O)/C(C)=C\[C@@H]2OC(=O)[C@@](C)(O)[C@@]2(O)[C@@H](OC(C)=O)[C@H]2[C@](C)(O)[C@H](O)C=C[C@]12C [BRIANODIN C]
- IC50 (KB): > 10 µg/mL
